For 14 compounds, EC50, IC50 and solubility results are on record in patent EP4332093A1, “SALT CONTAINING PIPERAZINE POLYCYCLIC DERIVATIVE, CRYSTAL FORM THEREOF, PREPARATION METHOD THEREFOR, AND USE THEREOF” (Shanghai Hansoh Biomedical Co., Ltd., priority 2021, dated 2022).

For orientation: EC50 means the midpoint of the concentration-response curve. Broadly, the IC50 is the concentration needed to halve the response being measured. In general, solubility refers to the concentration that dissolves in the medium under given conditions. High values mean much dissolved substance, low ones little dissolved substance.

The target in one series is T1, D3 receptor (Homo sapiens, UniProt P35462).
T1 construct: expressed in transfected cells
T1 sequence (P35462 whole entry): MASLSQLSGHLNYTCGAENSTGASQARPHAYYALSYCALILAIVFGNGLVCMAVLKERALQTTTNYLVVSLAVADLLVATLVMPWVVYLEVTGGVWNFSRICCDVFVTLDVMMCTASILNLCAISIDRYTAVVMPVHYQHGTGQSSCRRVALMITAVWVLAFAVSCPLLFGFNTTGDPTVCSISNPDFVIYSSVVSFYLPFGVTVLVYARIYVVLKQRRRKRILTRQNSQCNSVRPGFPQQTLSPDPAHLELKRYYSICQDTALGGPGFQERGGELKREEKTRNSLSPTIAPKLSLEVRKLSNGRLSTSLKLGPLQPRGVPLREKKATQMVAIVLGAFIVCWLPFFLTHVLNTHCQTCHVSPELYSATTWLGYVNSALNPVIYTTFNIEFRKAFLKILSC
The series is described as follows: cAMP content in cells stably expressing D3 receptors (CHO-D3, forskolin, HTRF). The series is classed as cell-based. The method, then:
Determination of the effect of the compounds of the present invention on cAMP content in cells stably expressing D3 receptors
To determine the activation effect of the compounds on D3 receptor.
• 1. Preparation of the buffer: 1* HBSS + 20mM HEPES + 0.1% BSA + 500 µM IBMX. Complete medium: Ham's F12K + 10% fetal bovine serum +1* penicillin-streptomycin + 400 µg/mL G418. • 2. CHO-D3 cells were cultured in the complete medium at 37°C, 5% CO2. After TrypLE digestion, the cells were resuspended in the experimental buffer, and seeded into a 384-well cell culture plate at a seeding density of 8000 cells per well. • 3. The experimental buffer (1*HBSS, 0.1% BSA, 20 mM HEPES and 500 µM IBMX) was prepared. The compound was diluted with the buffer. 2.5 µL of the compound solution was added to each well, and the plate was incubated at 37°C for 10 minutes. The forskolin was diluted to 8 µM (8*) with the experimental buffer. 2.5 µL of the diluted 8* forskolin was added, and the plate was incubated at 37°C for 30 minutes. cAMP-d2 and Anti-cAMP-Eu^3+ were thawed, and diluted by 20-fold with the lysis buffer. 10 µL of cAMP-d2 was added to the experimental well, followed by the addition of 10 µL of Anti-cAMP-Eu^3+. The reaction plate was centrifuged at 200 g for 30 s at room temperature, and left to stand at 25°C for 1 h. Data was collected using Envision.
(Time-resolved FRET reads energy transfer from a long-lived donor to a nearby acceptor.)

The next series addresses 5-HT2A receptor (Homo sapiens, UniProt P28223). Briefly: Calcium ion mobility in cells stably expressing 5-HT2A receptors (Flp-In-CHO-5HT2A, FLIPR). The series is classed as cell-based. Further details: expressed in transfected cells. The following applies: Flp-In-CHO-5HT2A stable pool, 5HT stimulation. The method, then:
Determination of the effect of the compounds of the present invention on calcium ion mobility in cells stably expressing 5-HT2A receptors
To determine the inhibitory effect of the compounds on 5-HT2A receptor.
• 1) Preparation of the buffer: 1 x HBSS, 20 mM HEPES, 2.5 mM probenecid (probenecid was 400 mM stock in 1 M NaOH), 0.1% BSA. Probenecid and BSA were added fresh on the day of the experiment. Experimental buffers include dye buffer and compound dilution buffer. • 2) Cell culture medium: Ham's F-12K + 10% fetal bovine serum + 600 µg/ml hygromycin B + 1* penicillin-streptomycin. Seeding medium: Ham's F-12K + 10% dialysis serum; Assay buffer: 1 x HBSS + 20 mM HEPES; Cell line: Flp-In-CHO-5HT2A stable pool. • 3) The cells were cultured in the complete medium at 37°C, 5% CO2 to 70%-90% confluency. The cells were digested with TrypLE, seeded to the 384-well assay plate at a density of 1 × 10^4 cells/well, and incubated for 16 to 24 hours (at least overnight). • 4) 20X Component A was thawed to room temperature, diluted to 2X working concentration (containing 5mM Probenecid) with the assay buffer, and placed at room temperature for later use. • 5) The cell culture plate was taken out and left to stand at room temperature for 10 min. […] 10 µl of diluted 5HT was add to each experimental well using FLIPR Tetra, and the values were read.
The calcium signal values were determined by FLIPR. The calculated output for each sampling time point in the experiment was the ratio of the 340/510 nm wavelength signals to 380/510 nm wavelength signals. The maximum minus minimum calculation was derived from the ratio signal curve. The percent inhibition rate and ten-point concentration data were fitted to the parametric nonlinear logistic equation by using GraphPad prism to calculate the IC50 values of the compound.

The nature of series [1]: Solubility of hydrochloride and free base in different media (37°C, 24 hours, HPLC). Type of series: physicochemical. The conditions noted are these: thermodynamic from solid. The method, then: The glass bottle was shaken overnight on an electrothermal constant temperature shaking tank, and the temperature was set to 37°C. After 24 hours, the sample solution was filtered with a 0.45 µm mixed water fiber filter membrane, and the subsequent filtrate was taken to test its content by HPLC. HPLC detection methods are described in "Stability Study Conditions". Table 24 Solubility of hydrochloride and free base in different pH buffers

≈ marks a conversion by molar mass, not a printed value.

5-HT2A receptor, sequence (P28223 whole entry): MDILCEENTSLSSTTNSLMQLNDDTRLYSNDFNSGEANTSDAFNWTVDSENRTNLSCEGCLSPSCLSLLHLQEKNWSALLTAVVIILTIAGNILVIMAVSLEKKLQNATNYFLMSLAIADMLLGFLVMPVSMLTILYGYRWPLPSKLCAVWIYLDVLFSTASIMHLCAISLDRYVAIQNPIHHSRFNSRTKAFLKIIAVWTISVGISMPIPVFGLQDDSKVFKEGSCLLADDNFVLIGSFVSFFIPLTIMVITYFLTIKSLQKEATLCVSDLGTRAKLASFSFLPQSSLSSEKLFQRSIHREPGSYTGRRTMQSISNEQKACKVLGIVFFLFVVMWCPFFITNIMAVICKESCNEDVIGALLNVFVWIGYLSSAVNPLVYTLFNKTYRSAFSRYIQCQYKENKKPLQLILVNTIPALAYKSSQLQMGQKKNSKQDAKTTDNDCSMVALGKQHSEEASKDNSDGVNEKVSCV

The compound `Cc1ccc(C(=O)NC2CC(CCN3CCN(c4cccc(Cl)c4Cl)CC3)C2)o1` (stereo not shown) [Example 1, N-(3-(2-(4-(2,3-Dichlorophenyl)piperazin-1-yl)ethyl)cyclobutyl)-5-methylfuran-2-c arboxamide] returned a 50% effective concentration (EC50) on D3 receptor of 3.5 nM. Besides, the IC50 on 5-HT2A receptor came out at 8.08 nM.
As for `COCC(=O)NC1CC(CCN2CCN(c3cccc(Cl)c3Cl)CC2)C1` (stereo not shown) [Example 2, N-(3-(2-(4-(2,3-Dichlorophenyl)piperazin-1-yl)ethyl)cyclobutyl)-2-methoxyacetamide], a half-maximal response on D3 receptor (EC50) required 2.2 nM. Further, the IC50 at 5-HT2A receptor was determined as 16.7 nM.
For `O=C(NC1CC(CCN2CCN(c3cccc(Cl)c3Cl)CC2)C1)c1cccnc1` (stereo not shown) [Example 3, N-(3-(2-(4-(2,3-Dichlorophenyl)piperazin-1-yl)ethyl)cyclobutyl)nicotinamide] the same measures were 1.2 nM and 48 nM.
For `COC1CN(C(=O)NC2CC(CCN3CCN(c4cccc(Cl)c4Cl)CC3)C2)C1` (stereo not shown) [Example 5, N-(3-(2-(4-(2,3-Dichlorophenyl)piperazin-1-yl)ethyl)cyclobutyl)-3-methoxyazetidine-1-carboxamide] the same measures were 2.4 nM and 22.1 nM.
The corresponding values for `Cc1cc(CC(=O)NC2CC(CCN3CCN(c4cccc(Cl)c4Cl)CC3)C2)on1` (stereo not shown) [Example 10, N-(3-(2-(4-(2,3-Dichlorophenyl)piperazin-1-yl)ethyl)cyclobutyl)-2-(3-methylisoxazol-5-yl)acetamide] are 1.2 nM and 8.9 nM.
`Cc1cnoc1C(=O)NC1CC(CCN2CCN(c3cccc(Cl)c3Cl)CC2)C1` (stereo not shown) [Example 13, N-(3-(2-(4-(2,3-Dichlorophenyl)piperazin-1-yl)ethyl)cyclobutyl)-4-methylisoxazole-5-carboxamide] registered a concentration for a half-maximal effect (EC50) at D3 receptor of 3.4 nM. In addition, the IC50 at 5-HT2A receptor stood at 10.9 nM.
Compound `Cc1cc(C(=O)NC2CC(CCN3CCN(c4cccc(Cl)c4Cl)CC3)C2)on1` (stereo not shown) [Example 14, N-(3-(2-(4-(2,3-Dichlorophenyl)piperazin-1-yl)ethyl)cyclobutyl)-3-methylisoxazole-5-carboxamide] returned an EC50 on D3 receptor of 1.2 nM. The IC50 on 5-HT2A receptor was 13.4 nM.
The compound `O=C(NC1CC(CCN2CCN(c3cccc(Cl)c3Cl)CC2)C1)c1ccno1` (stereo not shown) [Example 15, N-(3-(2-(4-(2,3-Dichlorophenyl)piperazin-1-yl)ethyl)cyclobutyl)isoxazole-5-carboxamide] registered an EC50 on D3 receptor of 1.7 nM. The IC50 on 5-HT2A receptor was 8.06 nM.
On to `Cc1ncc(C(=O)NC2CC(CCN3CCN(c4cccc(Cl)c4Cl)CC3)C2)o1` (stereo not shown) [Example 16, N-(3-(2-(4-(2,3-Dichlorophenyl)piperazin-1-yl)ethyl)cyclobutyl)-2-methyloxazole-5-carboxamide], for which, at D3 receptor, the EC50 amounted to 0.7 nM. Further, the IC50 on 5-HT2A receptor was 5.78 nM.
`O=C(NC1CC(CCN2CCN(c3cccc(Cl)c3Cl)CC2)C1)c1ccon1` (stereo not shown) [Example 17, N-(3-(2-(4-(2,3-Dichlorophenyl)piperazin-1-yl)ethyl)cyclobutyl)isoxazole-3-carboxamide] displayed an EC50 on D3 receptor of 3.1 nM. In addition, at 5-HT2A receptor, the IC50 stood at 8.92 nM.
For `Cc1nc(C(=O)NC2CC(CCN3CCN(c4cccc(Cl)c4Cl)CC3)C2)co1` (stereo not shown) [Example 18, N-(3-(2-(4-(2,3-Dichlorophenyl)piperazin-1-yl)ethyl)cyclobutyl)-2-methyloxazole-4-carboxamide] the same measures were 3.9 nM and 6.4 nM.
Take `O=C(NC1CC(CCN2CCN(c3cccc(Cl)c3Cl)CC2)C1)c1cccc2ncccc12` (stereo not shown) [Example 19, N-(3-(2-(4-(2,3-Dichlorophenyl)piperazin-1-yl)ethyl)cyclobutyl)quinoline-5-carbox amide]: on D3 receptor, the EC50 is 1 nM. Also, the IC50 at 5-HT2A receptor was determined as 7.37 nM.
The corresponding values for `N#CC1(C(=O)NC2CC(CCN3CCN(c4cccc(Cl)c4Cl)CC3)C2)CC1` (stereo not shown) [Example 21, 1-Cyano-N-(3-(2-(4-(2,3-dichlorophenyl)piperazin-1-yl)ethyl)cyclobutyl)cyclopropane-1-carboxamide] are 3.3 nM and 33.5 nM.
Consider `O=C(N[C@H]1C[C@H](CCN2CCN(c3cccc(Cl)c3Cl)CC2)C1)c1ncco1` [crystal form B of free base], for which the solubility at 24 h is above 1000 µg/mL in series [1] (aqueous buffer, Buffer pH 3); above 1000 µg/mL in series [1] (aqueous buffer, Buffer pH 4); above 1000 µg/mL in series [1] (aqueous buffer, Buffer pH 5); 388 µg/mL (≈ 917 µM) in series [1] (aqueous buffer, Buffer pH 6); 44 µg/mL (≈ 104 µM) in series [1] (aqueous buffer, Buffer pH 7); 2 µg/mL (≈ 4.72 µM) in series [1] (aqueous buffer, Buffer pH 8). In addition, the solubility at 24 h in series [1] (fassgf or other biorelevant, FaSSCoF) was above 1000 µg/mL; in series [1] (fassgf or other biorelevant, FaSSGF) it was 154 µg/mL (≈ 364 µM); in series [1] (fassgf or other biorelevant, FeSSCoF), above 1000 µg/mL; in series [1] (simulated gastric fluid, Buffer pH 1) it was above 1000 µg/mL; in series [1] (simulated gastric fluid, Buffer pH 2) it was above 1000 µg/mL; in series [1] (FaSSIF), above 1000 µg/mL. For the same compound, the solubility at 24 h is above 1000 µg/mL in series [1] (FeSSIF) and 125 µg/mL (≈ 295 µM) in series [1] (water, H2O).
